According to US4111751A, “Method of purifying alcohol dehydrogenase” (President and Fellows of Harvard College, priority 1977, dated 1978):
Blank lines part the entries; values can stand above or below the compound they belong to.

Assays:
[1] = system: other forms of liver alcohol dehydrogenase; details: read-out: Km for ethanol; cited from earlier work
[2] = target: T1, II-ADH (anodic band of liver alcohol dehydrogenase) (Homo sapiens, UniProt P08319); assay type: biochemical; details: pH 7.5; read-out: Km for ethanol
T1 construct: Starting with 100 g frozen human liver; from tissue; host or cells: human liver (frozen), purified
T1 sequence (P08319 2-380 limits assumed): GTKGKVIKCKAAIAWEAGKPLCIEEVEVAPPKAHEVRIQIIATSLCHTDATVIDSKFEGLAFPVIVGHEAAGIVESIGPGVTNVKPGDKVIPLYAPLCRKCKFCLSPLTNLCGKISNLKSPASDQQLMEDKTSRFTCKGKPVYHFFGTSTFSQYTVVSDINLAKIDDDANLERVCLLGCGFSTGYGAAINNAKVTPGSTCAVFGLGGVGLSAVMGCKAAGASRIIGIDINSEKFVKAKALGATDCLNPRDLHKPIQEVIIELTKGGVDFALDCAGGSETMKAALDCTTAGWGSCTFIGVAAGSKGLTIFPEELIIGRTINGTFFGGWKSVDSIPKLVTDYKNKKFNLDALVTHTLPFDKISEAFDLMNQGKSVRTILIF
From the text: (§1) However, purification of these enzymes has been a complicated and difficult procedure. […] Elution is preferably carried out with pyrazole solution or with a lower alkanol having at least two carbon atoms, e.g., ethanol, 1-propanol, 1-butanol, 1-pentanol, and the like. Further purification and separation of isoenzymes from the bound portion can be achieved by alcohol gradient elution. The alcohol dehydrogenase of the bound portion can be separated from the NAD after elution, if desired, by conventional dialysis procedures. […] The anodic band of liver alcohol dehydrogenase, as identified by Li et al., Biochem. Biophys. Res. Comm.

[3] = target: all other forms of liver alcohol dehydrogenase; test: inhibition of the other (pyrazole-sensitive) forms of liver alcohol dehydrogenase; assay type: biochemical, human
From the text: as §1

[4] = system: human liver alcohol dehydrogenase; test: inhibition of alcohol dehydrogenase activity of frozen human liver starting material; assay type: biochemical; details: 33 micromolar, pH 10, frozen human liver
Procedure: Starting with 100 g frozen human liver having a specific activity at pH 10 of about 0.05 I.U./mg and low inhibition (~ 75%) by 33 micromolar 4-methyl-pyrazole at pH 10 as well as high intensity of stain for the anodic band on starch gel electrophoresis, the liver was homogenized in 2.5 volumes water at 4° C., centrifuged for 30 min. at 30,000 rpm in a 30 rotor to provide 240 ml. of clear supernatant assaying at 58 I.U. of pyrazole-insensitive activity with a specific activity of 0.002 I.U./mg.

[5] = target: T1, II-ADH (anodic band of liver alcohol dehydrogenase); test: inhibition of purified II-ADH (anodic band, pyrazole-insensitive liver alcohol dehydrogenase) activity; assay type: biochemical
From the text: as §1

SMILES: CCO [ethanol]
- Km [1]: ≤ 1 mM
- Km [2]: 15 to 30 mM

- Ki ([3]; all other forms of liver alcohol dehydrogenase): < 1000 nM
SMILES: c1cn[nH]c1 [pyrazole]

- inhibition [4]: ~ 75%
- inhibition at 200 µM ([5]; 0.2 mM 4-methylpyrazole, 100 mM ethanol, purified II-ADH): < 10%
- inhibition ([5]; 33 micromolar, product after agarose-AMP): virtually uninhibited
- Vi/Vc ([5]; eluant (effluent) of pyrazole affinity resin containing the anodic band): 95-100%
- inhibition of activity ([3]; 0.2 mM 4-methylpyrazole, 100 mM ethanol, remainder of purified enzyme forms): more than 90%
SMILES: Cc1cn[nH]c1 [4-methylpyrazole]
